Reference: article PMC5310151 (Saudi Pharmaceutical Journal : SPJ, 2016)

How the values were obtained:
PPARα = biological target: T1, PPARα (Mus musculus, UniProt P23204); assay: PPRE luciferase reporter assay in HepG2 cells transfected with PPARα; type: cell-based; conditions: HepG2, read-out: Fold induction / PPAR alpha / 50 μg/ml
T1 sequence (P23204 1-468): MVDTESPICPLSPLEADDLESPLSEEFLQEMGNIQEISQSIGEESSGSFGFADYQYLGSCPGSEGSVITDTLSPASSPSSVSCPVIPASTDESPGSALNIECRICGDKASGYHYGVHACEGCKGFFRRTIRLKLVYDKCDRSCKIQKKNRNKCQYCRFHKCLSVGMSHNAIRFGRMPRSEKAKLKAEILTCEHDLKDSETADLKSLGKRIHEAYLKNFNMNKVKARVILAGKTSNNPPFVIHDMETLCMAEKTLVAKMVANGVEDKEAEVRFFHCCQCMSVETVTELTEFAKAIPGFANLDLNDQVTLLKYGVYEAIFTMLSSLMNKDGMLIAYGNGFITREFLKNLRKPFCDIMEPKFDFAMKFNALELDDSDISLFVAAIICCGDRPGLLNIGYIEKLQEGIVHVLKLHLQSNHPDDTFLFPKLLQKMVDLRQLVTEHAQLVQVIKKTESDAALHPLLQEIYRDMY

PPARγ = biological target: T2, PPARγ (Rattus norvegicus, UniProt O88275); assay: PPRE luciferase reporter assay in HepG2 cells transfected with PPARγ; type: cell-based; conditions: HepG2, read-out: Fold induction / PPAR gamma / 50 μg/ml
T2 sequence (O88275 1-505): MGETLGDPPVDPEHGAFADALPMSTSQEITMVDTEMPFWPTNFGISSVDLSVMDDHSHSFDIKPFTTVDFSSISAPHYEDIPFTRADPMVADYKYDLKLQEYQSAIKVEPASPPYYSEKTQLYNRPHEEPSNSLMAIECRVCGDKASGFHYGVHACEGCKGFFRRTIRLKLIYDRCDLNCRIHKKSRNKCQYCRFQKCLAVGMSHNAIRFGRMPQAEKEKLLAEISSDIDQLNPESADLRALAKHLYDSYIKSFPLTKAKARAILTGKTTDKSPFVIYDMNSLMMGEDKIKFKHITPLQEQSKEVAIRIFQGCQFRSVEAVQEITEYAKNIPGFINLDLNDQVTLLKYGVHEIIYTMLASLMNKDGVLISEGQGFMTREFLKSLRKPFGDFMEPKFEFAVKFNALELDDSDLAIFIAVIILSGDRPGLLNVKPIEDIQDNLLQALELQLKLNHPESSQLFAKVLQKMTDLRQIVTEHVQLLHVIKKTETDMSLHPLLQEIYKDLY

fold induction (PPARα) | fold induction at 10 µM (PPARγ) | Structure (SMILES)
2.2 ± 0.21 | – | CC(C)(Oc1ccc(C2CC2(Cl)Cl)cc1)C(=O)O (centres unmarked) [Ciprofibrate]
– | 4.33 ± 0.54 | CN(CCOc1ccc(CC2SC(=O)NC2=O)cc1)c1ccccn1 (centres unmarked) [Rosiglitazone]
